Results: ChEMBL document CHEMBL1165932, “Inhibition of Mycobacterium tuberculosis tyrosine phosphatase PtpA by synthetic chalcones: kinetics, molecular modeling, toxicity and effect on growth” (Bioorg Med Chem, 2010)

What was measured:
[1] = tested on: Mycobacterium tuberculosis; assay: Antibacterial activity against Mycobacterium bovis BCG infected in human THP1 cells assessed as viral infection at 20 uM after 48 hrs relative to control; assay type: functional, variant bovis BCG, THP-1
[2] = tested on: Mycobacterium tuberculosis; assay: Antibacterial activity against Mycobacterium bovis BCG infected in human THP1 cells assessed as viral infection at 10 uM after 24 hrs relative to control; assay type: functional, variant bovis BCG, THP-1

Compound | Activity [1] [%] | Activity [2] [%]
COc1ccc(C(=O)/C=C/c2ccc3ccccc3c2)cc1OC | 32.9 | 63.8
COc1ccc(OC)c(C(=O)/C=C/c2cccc3ccccc23)c1 | 46.3 | 108.6
COc1ccc(OC)c(C(=O)/C=C/c2ccc3ccccc3c2)c1 | 234.9 | 117.7
COc1cc(C(=O)/C=C/c2ccc3ccccc3c2)ccc1O | 8.5 | 72.9
O=C(/C=C/c1cccc2ccccc12)c1ccccc1O | 71.3 | 180.8
